# According to PMC7006542, “Characterization of a Plastoglobule-Localized SOUL4 Heme-Binding Protein in Arabidopsis thaliana” (Frontiers in Plant Science, 2020):
# Target: T1, recombinant maize (Zea mays) CK2 a-subunit (Biaffin) (Zea mays, UniProt P28523)
# T1 construct: gene ACK2; commercial recombinant catalytic alpha subunit (Biaffin)
# Test: in vitro kinase assay, SDS-PAGE and phosphorimager
# Format: biochemical
# Settings: protein substrate recombinant AtSOUL4 (3 µg); 25 mM Tris-HCl pH 8.0, 5 mM MgCl2, 1 mM DTT, 25 °C, 30 min; labelled compound; mere turnover
# T1 sequence (P28523 whole entry): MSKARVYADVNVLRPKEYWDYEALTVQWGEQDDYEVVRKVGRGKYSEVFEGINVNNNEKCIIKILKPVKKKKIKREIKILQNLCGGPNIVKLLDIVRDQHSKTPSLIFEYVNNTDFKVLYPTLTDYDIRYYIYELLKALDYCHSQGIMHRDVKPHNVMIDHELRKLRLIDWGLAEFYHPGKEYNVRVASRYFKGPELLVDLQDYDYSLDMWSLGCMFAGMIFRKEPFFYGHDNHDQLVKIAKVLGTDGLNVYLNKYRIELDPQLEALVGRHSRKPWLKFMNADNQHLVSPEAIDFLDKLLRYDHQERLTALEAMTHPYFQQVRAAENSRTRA
structure (smiles),measurement,value
Nc1ncnc2c1ncn2[C@@H]1O[C@H](COP(=O)(O)OP(=O)(O)OP(=O)(O)O)[C@@H](O)[C@H]1O [ATP],"in vitro kinase assay, SDS-PAGE and phosphorimager",revealing phosphorylation of SOUL4 both by recombinant maize CKII and stromal fraction
